Test results: paper PMC4749519, “Isoprenylated Flavonoids with PTP1B Inhibition from Macaranga denticulata” (Natural Products and Bioprospecting, 2016)

Target: T1, protein tyrosine phosphatase 1B (PTP1B) (Homo sapiens, UniProt P18031)
T1 sequence (P18031 1-435): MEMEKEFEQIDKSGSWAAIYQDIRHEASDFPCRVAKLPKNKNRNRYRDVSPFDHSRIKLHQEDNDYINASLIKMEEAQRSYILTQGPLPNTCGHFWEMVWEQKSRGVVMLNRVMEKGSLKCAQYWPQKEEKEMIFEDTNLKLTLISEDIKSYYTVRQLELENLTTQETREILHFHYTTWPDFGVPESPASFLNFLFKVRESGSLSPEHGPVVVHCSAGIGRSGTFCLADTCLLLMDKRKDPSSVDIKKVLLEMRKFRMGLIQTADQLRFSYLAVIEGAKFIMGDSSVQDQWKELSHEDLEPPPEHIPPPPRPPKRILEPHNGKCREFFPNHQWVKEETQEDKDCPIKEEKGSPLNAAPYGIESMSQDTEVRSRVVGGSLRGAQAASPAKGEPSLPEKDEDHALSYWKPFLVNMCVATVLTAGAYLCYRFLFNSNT
Assay: Assay of PTP1B activity (in vitro enzyme inhibition)
Format: biochemical
Conditions: in vitro PTP1B enzymatic activity; oleanolic acid as positive control; read-out: IC50 ± SD, inhibitory activity against PTP1B
Protocol: The bioassay procedure was the same as that reported previously. The result of PTP1B inhibition was expressed as IC50, which was calculated with Prism 4 software (Graphpad, San Diego, CA).

In order of falling IC50:
1. COc1ccc(/C=C/C(=O)c2c(O)c(C)c(O)c3c2OC(C)(C)C=C3)cc1 [Compound 4, (2E)-1-(5,7-dihydroxy-2,2,6-trimethyl-2H-benzopyran-8-yl)-3-(4-methoxyphenyl)-2-propen-1-one]  48.8 ± 5.5 µM
2. CC(C)=CCC/C(C)=C/Cc1c(O)cc2oc(-c3ccc(O)cc3)c(O)c(=O)c2c1O [Compound 7, macarangin]  22.7 ± 4.6 µM
3. CC1(C)C=Cc2c(O)c(C(=O)/C=C/c3ccc(O)cc3)c3c(c2O1)C=CC(C)(C)O3 [Compound 6, laxichalcone]  20.7 ± 5.3 µM
4. CC1(C)C=Cc2c(O)cc(O)c(C(=O)/C=C/c3ccccc3)c2O1 [Compound 5, (2E)-1-(5,7-dihydroxy-2,2-dimethyl-2H-benzopyran-8-yl)-3-phenyl-2-propen-1-one]  19.3 ± 1.4 µM
5. CC(C)=CCC/C(C)=C/Cc1c(O)cc2c(c1O)C(=O)[C@H](O)[C@@H](c1ccc(O)cc1)O2 [Compound 8, bonanniol A]  15.2 ± 2.8 µM
6. CC(C)=CCC/C(C)=C/Cc1c(O)cc2c(c1O)C(=O)C[C@@H](c1ccc(O)cc1)O2 [Compound 9, bonannione A]  14 ± 1.2 µM
